Experiment [1] addresses T1, GR (Homo sapiens, UniProt P04150).
T1 construct: endogenous in cells; host or cells: A549 (human lung carcinoma, ECACC No. 86012804), stably transfected with reporter plasmids only
T1 sequence (P04150 1-777): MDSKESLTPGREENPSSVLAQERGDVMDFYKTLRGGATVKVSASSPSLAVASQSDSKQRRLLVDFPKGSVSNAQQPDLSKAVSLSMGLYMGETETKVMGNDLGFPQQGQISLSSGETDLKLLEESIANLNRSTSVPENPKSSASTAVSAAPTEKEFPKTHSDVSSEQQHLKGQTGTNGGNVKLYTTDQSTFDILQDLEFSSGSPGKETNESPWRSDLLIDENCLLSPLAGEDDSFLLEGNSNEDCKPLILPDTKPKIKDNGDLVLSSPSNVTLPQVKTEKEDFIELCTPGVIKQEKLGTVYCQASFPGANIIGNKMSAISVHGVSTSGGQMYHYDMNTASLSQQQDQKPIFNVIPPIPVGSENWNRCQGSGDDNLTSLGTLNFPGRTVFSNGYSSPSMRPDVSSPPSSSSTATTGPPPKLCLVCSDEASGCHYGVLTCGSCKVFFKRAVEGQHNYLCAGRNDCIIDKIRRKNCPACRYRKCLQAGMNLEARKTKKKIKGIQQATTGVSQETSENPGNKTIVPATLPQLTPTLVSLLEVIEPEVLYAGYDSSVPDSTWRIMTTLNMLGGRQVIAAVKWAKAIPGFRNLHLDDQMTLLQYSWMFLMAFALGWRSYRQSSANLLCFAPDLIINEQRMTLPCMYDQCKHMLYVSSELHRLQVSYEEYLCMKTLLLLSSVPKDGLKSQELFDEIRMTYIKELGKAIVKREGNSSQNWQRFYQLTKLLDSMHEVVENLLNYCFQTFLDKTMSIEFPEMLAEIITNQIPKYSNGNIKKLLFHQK
Description: GR Agonist Assay - MMTV Assay (A549 MMTV cells, renilla luciferase reporter). Format: cell-based. Conditions: 6 h, agonists, read-out: average maximum asymptote in the MMTV agonist assay. Here is the method:
Stimulation of the cell line with GR agonists results in intracellular signal transduction and ultimately translocation of GR into the nucleus. This activates the inserted DNA sequence resulting in transcription of the integrated luciferase gene, which is quantified using a light emission. The stably transfected cell line was grown as a monolayer in DMEM supplemented with FCS-HI (10%), Non-essential amino acids (1%), L-Glutamine (2 mM), Pen/Strep (1%) and Geneticin (50 mg/ml).
A 90% confluent T175 flask of A549 MMTV cells was harvested by centrifugation for 5 min at 200 g, resuspended in assay buffer (DMEM supplemented with 10% FCS 2×HI, 2 mM Glutamax, Non essential amino acids and 25 mM HEPES) and diluted to 0.1×10^6/ml. 70 μl of cell solution was dispensed to each well of white Nunc 384-well plates, containing compound at the required concentration. […] The plates were covered to protect the reagents from light, and then incubated at room temperature for approximately 15 mins before reading them on a Viewlux.
On the technique in general: In a reporter assay the amount or activity of a reporter protein is the signal.

Experiment [2] has as its target T2, glucocorticoid receptor (Homo sapiens, UniProt P04150).
T2 construct: a partially purified full length glucocorticoid receptor
T2 sequence (P04150 1-777): T1 sequence (P04150 1-777)
Description: Glucocorticoid Receptor Binding Assay (fluorescence polarisation, displacement of Alexa 555 labelled dexamethasone derivative). The conditions noted are these: at least once in this assay; read-out: glucocorticoid binding pIC50 (converted). The method, then: Compounds were solvated and diluted in DMSO, and transferred directly into assay plates. Fluorescent dexamethasone and a partially purified full length glucocorticoid receptor were added to the plates, together with buffer components to stabilise the GR protein and incubated at room temperature for 2 hr in the dark. Binding of each compound was assessed by analysing the displacement of fluorescent ligand by measuring the decrease in fluorescence polarisation signal from the mixture.
(In general: Polarisation of emitted light reports the rotation of a fluorescent probe.)

Experiment [3] deals with T1, GR. The experiment is described as follows: GR Functional Assay - NFκB Assay (A549 SPAP cells, TNFα stimulated). It is filed as cell-based. The conditions noted are these: for Emax: agonists, read-out: average maximum asymptote in the NFkB assay. Here is the method: Stimulation of the cell line with TNFα results in intracellular signal transduction and ultimately translocation of NFκB into the nucleus. This activates the inserted DNA sequence resulting in transcription of the integrated SPAP gene, which is quantified using a calorimetric assay. […] The stably transfected cell line was grown as a monolayer in DMEM supplemented with FCS-HI (10%), Non-essential amino acids (1%), L-Glutamine (2 mM), Pen/Strep (1%) and Geneticin (50 mg/ml).
A 70% confluent T225 flask of A549 SPAP cells was harvested by centrifugation for 5 mins at 200 g, resuspended in assay buffer (DMEM supplemented with 10% FCS 2×HI, 2 mM L-Glutamine, 1% Pen/Strep and Non essential amino acids) and diluted to 0.16×10^6/ml. 60 μl of cell solution was dispensed to each well of clear Nunc 384-well plates, containing compound at the required concentration. […] Plates were equilibrated to room temperature for 1 hr prior to the addition of 25 μl of pNPP buffer (1M Diethanolamine pH 9.8, 0.5 mM MgCl2, 0.28M NaCl, 2 mg/ml pNPP) to each well of assay plates.

[4] abbreviates: at least once in the NFkB assay, A549 SPAP cells, read-out: pIC50 in the NFkB assay (converted).
Setting [5] is: at least once, examples listed as agonists in NFkB and MMTV assays, read-out: potency pIC50 in the NFKB assay (converted).

Where two headings read alike, the source gives them in different places.

Take `CCN(CC(O)(CNC(=O)c1cnn(-c2ccc(F)cc2)c1N)C(F)(F)F)C(=O)c1cccc(Cl)c1` (racemic) [Example 17 (racemic), 5-amino-N-(2-{[[(3-chlorophenyl)car-bonyl](ethyl)amino]methyl}-3,3,3-trifluoro-2-hydroxypropyl)-1-(4-fluorophenyl)-1H-pyrazole-4-carboxamide]: the Emax in experiment [1] and in experiment [3] (A549 SPAP cells) was not below 40% each time. In addition, the values for the IC50 in experiment [2], in experiment [3] (setting [4]) and in experiment [3] (setting [5]) were less than 1000 nM, less than 1000 nM and less than 316 nM, respectively.
For the compound `CCN(CC(O)(CNC(=O)c1cnn(-c2ccc(F)cc2)c1N)C(F)(F)F)C(=O)c1cccc(F)c1Cl` (racemic) [Example 18 (racemic), 5-amino-N-(2-{[[(2-chloro-3-fluorophenyl)car-bonyl](ethyl)amino]methyl}-3,3,3-trifluoro-2-hydroxypropyl)-1-(4-fluorophenyl)-1H-pyrazole-4-carboxamide], the Emax in experiment [1] and in experiment [3] (A549 SPAP cells) was not below 40% in each case. In addition, the IC50 in experiment [2] is less than 1000 nM; in experiment [3] (setting [4]), less than 1000 nM; in experiment [3] (setting [5]), less than 316 nM.
Take `CCN(CC(O)(CNC(=O)c1cnn(-c2ccc(F)cc2)c1N)C(F)(F)F)C(=O)c1cccc(C(F)(F)F)c1` (racemic) [Example 20 (racemic), 5-amino-N-{2-[(ethyl{[3-(trifluoromethyl)phenyl]carbonyl}amino)methyl]-3,3,3-trifluoro-2-hydroxypropyl}-1-(4-fluorophenyl)-1H-pyrazole-4-carboxamide]: the Emax in experiment [1] and in experiment [3] (A549 SPAP cells) was not below 40% throughout. For the same compound, the values for the IC50 in experiment [2], in experiment [3] (setting [4]) and in experiment [3] (setting [5]) were less than 1000 nM, less than 1000 nM and less than 316 nM, respectively.
For `CCN(CC(O)(CNC(=O)c1cnn(-c2ccc(F)cc2)c1N)C(F)(F)F)C(=O)c1ccc(F)cc1Cl` (racemic) [Example 23 (racemic), 5-amino-N-(2-{[[(2-chloro-4-fluorophenyl)car-bonyl](ethyl)amino]methyl}-3,3,3-trifluoro-2-hydroxypropyl)-1-(4-fluorophenyl)-1H-pyrazole-4-carboxamide], the Emax in experiment [1] and in experiment [3] (A549 SPAP cells) was not below 40% each time. Also, the IC50 is less than 1000 nM in experiment [2], less than 1000 nM in experiment [3] (setting [4]) and less than 316 nM in experiment [3] (setting [5]).
For `CC(=O)c1ccccc1C(=O)N(C)CC(O)(CNC(=O)c1cnn(-c2ccc(F)cc2)c1N)C(F)(F)F` (racemic) [Example 27 (racemic), N-(2-{[[(2-acetylphenyl)car-bonyl](methyl)amino]methyl}-3,3,3-trifluoro-2-hydroxypropyl)-5-amino-1-(4-fluorophenyl)-1H-pyrazole-4-carboxamide], the Emax in experiment [1] and in experiment [3] (A549 SPAP cells) was not below 40% in each case. Besides, the IC50 is less than 1000 nM in experiment [2], less than 1000 nM in experiment [3] (setting [4]) and less than 316 nM in experiment [3] (setting [5]).
In the case of `CN(CC(O)(CNC(=O)c1cnn(-c2ccc(F)cc2)c1N)C(F)(F)F)C(=O)c1ccccc1C(F)(F)F` (racemic) [Example 28 (racemic), 5-amino-1-(4-fluorophenyl)-N-{3,3,3-trifluoro-2-hydroxy-2-[(methyl{[2-(trifluoromethyl)phenyl]carbonyl}amino)methyl]propyl}-1H-pyrazole-4-carboxamide], the Emax in experiment [1] and in experiment [3] (A549 SPAP cells) was not below 40% throughout. Also, the figures for the IC50 in experiment [2], in experiment [3] (setting [4]) and in experiment [3] (setting [5]) were less than 1000 nM, less than 1000 nM and less than 316 nM, respectively.
With `CCN(CC(O)(CNC(=O)c1cnn(-c2ccc(Cl)cc2)c1N)C(F)(F)F)C(=O)c1ccccc1` (racemic) [Example 32 (racemic), 5-amino-1-(4-chlorophenyl)-N-(2-{[ethyl(phenylcarbonyl)amino]methyl}-3,3,3-trifluoro-2-hydroxypropyl)-1H-pyrazole-4-carboxamide], the Emax in experiment [1] and in experiment [3] (A549 SPAP cells) was not below 40% throughout. The IC50 in experiment [2] is less than 1000 nM; in experiment [3] (setting [5]), less than 316 nM.
For `CCN(CC(O)(CNC(=O)c1cnn(-c2cc(F)cc(F)c2)c1N)C(F)(F)F)C(=O)c1ccccc1` (racemic) [Example 33 (racemic), 5-amino-1-(3,5-difluorophenyl)-N-(2-{[ethyl(phenylcarbonyl)amino]methyl}-3,3,3-trifluoro-2-hydroxypropyl)-1H-pyrazole-4-carboxamide], the Emax in experiment [1] and in experiment [3] (A549 SPAP cells) was not below 40% in each case. Further, the results for the IC50 in experiment [2] and in experiment [3] (setting [5]) were less than 1000 nM and less than 316 nM, respectively.
With `CCN(CC(O)(CNC(=O)c1cnn(-c2cccc(F)c2)c1N)C(F)(F)F)C(=O)c1ccccc1` (racemic) [Example 35 (racemic), 5-amino-N-(2-{[ethyl(phenylcarbonyl)amino]methyl}-3,3,3-trifluoro-2-hydroxypropyl)-1-(3-fluorophenyl)-1H-pyrazole-4-carboxamide], the Emax in experiment [1] and in experiment [3] (A549 SPAP cells) was not below 40% each time. Further, the IC50 in experiment [2] is less than 1000 nM; in experiment [3] (setting [5]), less than 316 nM.
For `CCN(CC(O)(CNC(=O)c1cnn(-c2cccc(Cl)c2)c1N)C(F)(F)F)C(=O)c1ccccc1` (racemic) [Example 37 (racemic), 5-amino-1-(3-chlorophenyl)-N-(2-{[ethyl(phenylcar-bonyl)amino]methyl}-3,3,3-trifluoro-2-hydroxypropyl)-1H-pyrazole-4-carboxamide], the Emax in experiment [1] and in experiment [3] (A549 SPAP cells) was not below 40% in each case. The IC50 in experiment [2] was less than 1000 nM; in experiment [3] (setting [5]), less than 316 nM.
As to `CCN(CC(O)(CNC(=O)c1cnn(-c2ccc(F)cc2)c1N)C(F)(F)F)C(=O)c1ncccc1F` (racemic) [Example 38 (racemic), N-{2-[({[5-amino-1-(4-fluorophenyl)-1H-pyrazol-4-yl]carbonyl}amino)methyl]-3,3,3-trifluoro-2-hydroxypropyl}-N-ethyl-3-fluoro-2-pyridinecarboxamide], the Emax in experiment [1] and in experiment [3] (A549 SPAP cells) was not below 40% each time. In addition, the IC50 in experiment [2] was less than 1000 nM; in experiment [3] (setting [5]) it was less than 316 nM.
Take `Nc1c(C(=O)NCC(O)(CN(CCF)C(=O)c2ncccc2F)C(F)(F)F)cnn1-c1ccc(F)cc1` (racemic) [Example 40 (racemic), N-{2-[({[5-amino-1-(4-fluorophenyl)-1H-pyrazol-4-yl]carbonyl}amino)methyl]-3,3,3-trifluoro-2-hydroxypropyl}-3-fluoro-N-(2-fluoroethyl)-2-pyridinecarboxamide]: the Emax in experiment [1] and in experiment [3] (A549 SPAP cells) was not below 40% throughout. For the same compound, the results for the IC50 in experiment [2] and in experiment [3] (setting [5]) were less than 1000 nM and less than 316 nM, respectively.

The record behind these values is patent publication US20100035926A1, “PYRAZOLE DERIVATIVES AS NON-STEROIDAL GLUCOCORTICOID RECEPTOR LIGANDS” (priority 2006, published 2010).
